Here are results for twelve molecules from US10028966B2 (Avalyn Pharma Inc., priority 2014, dated 2018).

Data set [1] can be described thus: Pharmacokinetics and tissue distribution (lung, plasma, heart, kidney) of co-solvent formulations, intratracheal bolus aerosol. The format is in vivo, Sprague-Dawley rats. The conditions noted are these: pirfenidone about 4 mg/kg IT aerosol. As to the method:
Selected formulations were prepared for pharmacokinetic analysis following aerosol delivery to rat lung. […] Formulations prepared for this study are outlined in Table 9. […] The sample was agitated until completely dissolved. […] Filtered samples were analyzed by HPLC.

The subject of data set [2] is elastase. The conditions noted are these: unprocessed CF sputum directly treated; cited from earlier work.
The conditions of data set [3]: primary metabolite; cited from earlier work.
The subject of data set [4] is cancer patients. The conditions noted are these: cited from earlier work.
Data set [5] concerns relapsed/refractory multiple myeloma. The settings on record: cited from earlier work.
Data set [6] relates to EGFR mutation positive patients. The conditions noted are these: cited from earlier work.
The subject of data set [7] is PI3K. The settings on record: cited from earlier work.
In data set [8] the target is mTOR (Homo sapiens, UniProt P42345). The settings on record: cited from earlier work.
The subject of data set [9] is breast cancer stem cells. The settings on record: mice; cited from earlier work.
Data set [10] relates to p110-γ and p110-δ. The settings on record: inhibits all four isoforms; cited from earlier work.

Consider `O=C(O)c1ccc(=O)n(-c2ccccc2)c1`, for which the “5-carboxy metabolite, lung tissue, Mean” value is given as 0.00 μg/gram in [1] (0 MIN (one value for all groups)); 0.12 μg/gram in [1] (Group 1, 0.0333 hr); 0.13 μg/gram in data set [1] (Group 1, 0.0667 hr); 0.48 μg/gram in data set [1] (Group 1, 0.100 hr); 0.49 μg/gram in [1] (Group 1, 0.167 hr); 0.96 μg/gram in [1] (Group 1, 0.333 hr). In addition, the “5-carboxy metabolite, lung tissue, Mean” value in data set [1] (Group 1, 0.667 hr) came out at 0.96 μg/gram; in data set [1] (Group 1, 1 hr) it was 0.73 μg/gram; in [1] (Group 1, 2 hr), 0.21 μg/gram; in data set [1] (Group 1, 2.50 hr), 0.10 μg/gram; in data set [1] (Group 1, […]), 0.48 μg/gram; in [1] (Group 3, 0.0333 hr), 0.05 μg/gram. Moreover, the “5-carboxy metabolite, lung tissue, Mean” value in data set [1] (Group 3, 0.0667 hr) is given as 0.36 μg/gram; in [1] (Group 3, 0.100 hr), 0.55 μg/gram; in data set [1] (Group 3, 0.167 hr) it was 0.86 μg/gram; in [1] (Group 3, 0.333 hr), 1.09 μg/gram; in data set [1] (Group 3, 0.667 hr) it was 0.81 μg/gram; in data set [1] (Group 3, 1 hr), 0.70 μg/gram. For the same molecule, the “5-carboxy metabolite, lung tissue, Mean” value in [1] (Group 3, 2 hr) was determined as 0.32 μg/gram; in data set [1] (Group 3, 2.50 hr) it was 0.14 μg/gram; in data set [1] (Group 3, […]), 0.52 μg/gram; in data set [1] (Group 5, 0.0333 hr) it was 0.17 μg/gram; in data set [1] (Group 5, 0.0667 hr) it was 0.42 μg/gram; in data set [1] (Group 5, 0.100 hr), 0.35 μg/gram. The “5-carboxy metabolite, lung tissue, Mean” value in [1] (Group 5, 0.167 hr) was 0.53 μg/gram; in [1] (Group 5, 0.333 hr), 1.32 μg/gram; in data set [1] (Group 5, 0.667 hr), 0.96 μg/gram; in data set [1] (Group 5, 1 hr), 0.75 μg/gram; in [1] (Group 5, 2 hr), 0.18 μg/gram; in [1] (Group 5, 2.50 hr), 0.10 μg/gram. Further, the “5-carboxy metabolite, lung tissue, Mean” value in data set [1] (Group 5, […]) is 0.45 μg/gram; in [1] (Group 6, 0.0333 hr), 0.17 μg/gram; in data set [1] (Group 6, 0.0667 hr), 0.43 μg/gram; in [1] (Group 6, 0.100 hr) it was 0.37 μg/gram; in data set [1] (Group 6, 0.167 hr), 0.64 μg/gram; in [1] (Group 6, 0.333 hr) it was 0.94 μg/gram. For the same molecule, the “5-carboxy metabolite, lung tissue, Mean” value amounted to 0.92 μg/gram in data set [1] (Group 6, 0.667 hr); 0.78 μg/gram in data set [1] (Group 6, 1 hr); 0.24 μg/gram in [1] (Group 6, 2 hr); 0.14 μg/gram in data set [1] (Group 6, 2.50 hr); 0.43 μg/gram in data set [1] (Group 6, […]).

Turning to `O=C(O)CCCC[C@@H](S)CCS` (racemic) [DHLA, dihydrolipoic acid], the “increase of sol elastase activity” value in data set [2] is “did not increase elastase activity”.

Turning to `O=C(O)c1ccc(=O)n(-c2ccccc2)c1` [5-carboxy-pirfenidone], the “share of urinary excretion” value in [3] is 95%.

For the molecule `N#CC1(c2ccc(NC(=O)c3cccnc3NCc3ccncc3)cc2)CCCC1` [Apatinib], in data set [4] (65 cancer patients, Phase I/II), the complete response is 1.54%, the partial response is listed as 12.31%, the progressive disease is on record as 20% and the stable disease was 66.15%. The maximum tolerated dose in [4] (daily for 28 days) is listed as 850 mg/day.

Turning to `CC(C)C[C@H](NC(=O)[C@H](Cc1ccccc1)NC(=O)c1cnccn1)B(O)O` [Bortezomib], the “patients with peripheral neuropathy” value in data set [5] (human, in vivo) is on record as 30%. Besides, the “time to peak concentrations” value in [5] (intravenous administration) is listed as “about 30 minutes”.

Take `C#Cc1cccc(Nc2ncnc3cc(OCCOC)c(OCCOC)cc23)c1` [Erlotinib]: the response rate entry in data set [6] is on record as “approximately 60%”.

For the molecule `CS(=O)(=O)N1CCN(Cc2cc3nc(-c4cccc5[nH]ncc45)nc(N4CCOCC4)c3s2)CC1` [GDC-0941], the IC50 in [7] is […].

Take `Cc1c(CN2CCN(S(C)(=O)=O)CC2)sc2c(N3CCOCC3)nc(-c3cnc(N)nc3)nc12` [GNE-477]: the half-inhibitory concentration (IC50) in data set [8] was 21 nM.

On to `CC[C@@H](C(=O)[C@@H](C)[C@@H](O)[C@H](C)[C@@H]1O[C@@H]([C@@H](CC)C(=O)O)CC[C@@H]1C)[C@H]1O[C@]2(C=C[C@@H](O)[C@]3(CC[C@@](C)([C@H]4CC[C@](O)(CC)[C@H](C)O4)O3)O2)[C@H](C)C[C@@H]1C` [Salinomycin], for which the “killing of breast cancer stem cells, times more effectively than paclitaxel” value in data set [9] is “at least 100 times”.

`Nc1nc(N)c2nc(-c3cccc(O)c3)c(-c3cccc(O)c3)nc2n1` [TG100-115]: the “fold better potency against p110-γ and p110-δ” value in data set [10] is reported as 5-10 fold.

DNase: in data set [2], the “increase of sol elastase activity” value is given as 190%.

B1: reduced rhTrx: stable reduced form of recombinant human thioredoxin (protein, UniProt P10599 2-105, looked up)
Thioredoxin: VKQIESKTAFQEALDAAGDKLVVVDFSATWCGPCKMIKPFFHSLSEKYSNVIFLEVDVDDCQDVASECEVKCMPTFQFFKKGQKVGEFSGANKEKLEATINELV
modifications: reduced form
As for B1, the “increase of sol elastase activity” value in [2] is 60%.

Broadly, the IC50 is the concentration that gives 50% inhibition.
